The results in this text go back to US10111874B2, “Combination therapies for treatment of cancer” (Araxes Pharma LLC, priority 2014, dated 2018).

SMILES strings stand for the structures.

Assay [1] addresses T1, KRAS G12C 1-169, his-tagged protein, GDP-loaded (Homo sapiens, UniProt P01116, G12C).
T1 construct: KRAS G12C 1-169, his-tagged protein, GDP-loaded
Description: Biochemical assay: covalent binding to KRAS G12C analyzed by mass spectrometry.

The next assay has as its system H358 cells (KRAS G12C). Nature of the assay: Western blots of downstream KRAS signaling nodes and apoptosis markers in H358 cells. It counts as cell-based. Conditions: for inhibition of downstream KRAS signaling nodes (Western blot) / apoptosis based on cleaved PARP levels: H358 cells; for inhibition of downstream KRAS signaling nodes (Western blot): alone; for apoptosis based on cleaved PARP levels: erlotinib 5 μM; for G1 arrest and induction of apoptosis: H358 cells (FIG. 9, left panel). The method, then:
FIG. 2 depicts western blot analysis of downstream targets of K-Ras signaling. […] Paclitaxel was used as a positive control. The western blots were probed with antibodies for p-AKT, p-ERK, total ERK, p-RSK, p-S6 and cleaved PARP. Cleaved PARP is indicative of apoptosis. B) A549 cells that express the G12S isoform of K-Ras were used a control for K-Ras G12C inhibitor specificity. A549 cells were treated as in A).
Western blots were used to analyze downstream KRAS signaling nodes (AKT, ERK, RSK, S6) and a marker of apoptosis (cleaved PARP).
Western blots were used to analyze downstream KRAS signaling nodes (AKT, ERK, RSK, S6) and a marker of apoptosis (cleaved PARP). […] Taxol (paclitaxel) was used as a positive control.
Western blots were used to analyze downstream KRAS signaling nodes (AKT, ERK, RSK, S6) and a marker of apoptosis (cleaved PARP). […] Caspase activity was measured using a standard caspase activity luminescence assay (Capase-Glo, Promega).

In assay [2] the test system is mutant cell lines (NCI-H23, SW1573). Nature of the assay: Western blots, KRAS G12C inhibitor with ruxolitinib or momelotinib. It counts as cell-based. Conditions: I-272 1 μM; ruxolitinib or momelotinib 1 and 5 μM. Here is the method: Western blots were used to analyze downstream KRAS signaling nodes (AKT, ERK, S6), transcription factors (STAT3, IκBα), protein marker (TBK1) and a marker of apoptosis (cleaved PARP). Treatment of mutant cell lines (NCI-H23, SW1573) were tested with an exemplary KRAS G12C inhibitor (compound I-272, 1 μM) alone or in combination with one of ruxolitinib (JAK 1/2 inhibitor, 1 and 5 μM) or momelotinib (JAK1/2, TBK1, IKKe inhibitor, 1 and 5 μM). […] Further, there is synergistic p-S6 inhibition in each of the combinations. Synergistic apoptosis strongly occurred when TBK1 and non-canonical NFκB signaling is inhibited.

[3] abbreviates: compounds 48-246, measured at 2 h.
Where [4] appears, read: I-74 15 μM, PD0325901 100 nM, GDC0941 1 μM.
Setting [5] is: 24 hours, G12C inhibitors 10 μM, GDC0941 2 μM (FIG. 2).

T1 sequence (P01116 1-169 isoform P01116-2 G12C): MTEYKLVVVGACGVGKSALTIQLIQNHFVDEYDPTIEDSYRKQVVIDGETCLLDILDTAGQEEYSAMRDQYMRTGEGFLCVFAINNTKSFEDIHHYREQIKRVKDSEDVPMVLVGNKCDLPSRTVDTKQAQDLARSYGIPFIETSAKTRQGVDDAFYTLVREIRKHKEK

As to `C=CC(=O)N1CCN(c2ncnc3cc(-c4ccccc4O)c(Cl)cc23)CC1` [Compound I-74, 1-(4-(6-chloro-7-(2-hydroxyphenyl)quinazolin-4-yl)piperazin-1-yl)prop-2-en-1-one], the Binding % entry in assay [1] (setting [3]) is “+++ (+++indicates binding activity greater than 50% and up to 75%)”. Moreover, in the assay with H358 cells (KRAS G12C) (15 μM, 24 hours), the “inhibition of downstream KRAS signaling nodes (Western blot)” value (shortened to “inhibition”) was “clear and nearly complete inhibition of p-ERK, p-RSK, and p-S6”. Further, in the assay on H358 cells (KRAS G12C) (setting [4]), the “apoptosis based on cleaved PARP levels” value is “minimal cleaved PARP”.
As for `C=CC(=O)N1CCN(c2ncnc3cc(-c4c(O)ccc5ccccc45)c(Cl)cc23)CC1` [Compound I-153, 1-(4-(6-chloro-7-(2-hydroxynaphthalen-1-yl)quinazolin-4-yl)piperazin-1-yl)prop-2-en-1-one], the Binding % entry in assay [1] (setting [3]) is “++++ (++++indicates binding activity greater than 75%)”. Also, the “apoptosis based on cleaved PARP levels” value in the assay on H358 cells (KRAS G12C) (setting [5]) is on record as “minimal cleaved PARP”. Also, the “inhibition” value in the assay with H358 cells (KRAS G12C) (24 hours, 10 μM (FIG. 2)) is “clear and nearly complete inhibition of p-ERK, p-RSK, and p-S6, with partial inhibition of p-AKT”.
With `C=CC(=O)N1CCN(c2ncnc3c(F)c(-c4ccccc4F)c(Cl)cc23)CC1` [Compound I-158, 1-(4-(6-chloro-8-fluoro-7-(2-fluorophenyl)quinazolin-4-yl)piperazin-1-yl)prop-2-en-1-one], in assay [1] (setting [3]), the Binding % entry is recorded as “++++ (++++indicates binding activity greater than 75%)”. Moreover, the “apoptosis based on cleaved PARP levels” value with H358 cells (KRAS G12C) (setting [5]) is “minimal cleaved PARP”. The “inhibition” value in the assay with H358 cells (KRAS G12C) (24 hours, 10 μM (FIG. 2)) is “clear and nearly complete inhibition of p-ERK, p-RSK, and p-S6, with partial inhibition of p-AKT”.
Consider `C=CC(=O)N1CC(N2CCN(C(=O)/C=C/c3cc(C4CC4)c(Cl)cc3O)CC2)C1` [II-62, (E)-1-(4-(1-Acryloylazetidin-3-yl)piperazin-1-yl)-3-(4-chloro-5-cyclopropyl-2-hydroxyphenyl)prop-2-en-1-one], for which the Binding % entry in assay [1] (determined at 2 hrs) is on record as “+ (+indicates binding activity from 5% to 20%)”.
For `C=CC(=O)N1CC(N2CCN(C(=O)CNc3cc(C4CC4)c(Cl)cc3O)C[C@H]2CO)C1` [II-63, (S)-1-(3-(4-(2-(4-chloro-5-cyclopropyl-2-hydroxyphenyl-amino)acetyl)-2-(hydroxymethyl)-piperazin-1-yl)azetidin-1-yl)prop-2-en-1-one], the Binding % entry in assay [1] (determined at 2 hrs) is “++ (++indicates binding activity greater than 20%)”.
On the same count and under the same terms, with `C=CC(=O)N1CC(N2CCN(C(=O)CNc3cc(C4(C)CC4)c(Cl)cc3O)CC2)C1` [II-64, 1-(3-(4-(2-((4-Chloro-2-hydroxy-5-(1-methylcyclopropyl)phenyl)amino)acetyl)piperazin-1-yl)azetidin-1-yl)prop-2-en-1-one] the entry was “++ (++indicates binding activity greater than 20%)”; with `C=CC(=O)N1CC(N2CCN(C(=O)CSc3cc(C4CC4)c(Cl)cc3OC)CC2)C1` [II-65, 1-(3-(4-(2-(4-Chloro-5-cyclopropyl-2-methoxyphenylthio)acetyl)piperazin-1-yl)azetidin-1-yl)prop-2-en-1-one], “+ (+indicates binding activity from 5% to 20%)”.
Consider `C=CC(=O)N1CC(N2CCN(C(=O)[C@H](C)Nc3cc(C4CC4)c(Cl)cc3O)CC2)C1` [II-67, (S)-1-(3-(4-(2-((4-Chloro-5-cyclopropyl-2-hydroxyphenyl)amino)propanoyl)piperazin-1-yl)azetidin-1-yl)prop-2-en-1-one], for which the Binding % entry in assay [1] (determined at 2 hrs) is given as “++ (++indicates binding activity greater than 20%)”.
In the case of `C=CC(=O)N1CC(N2CCN(C(=O)[C@@H](C)Nc3cc(C4CC4)c(Cl)cc3O)CC2)C1` [II-68, (R)-1-(3-(4-(2-(4-chloro-5-cyclopropyl-2-hydroxyphenylamino)-propanoyl)piperazin-1-yl)azetidin-1-yl)prop-2-en-1-one], the Binding % entry in assay [1] (determined at 2 hrs) is “++ (++indicates binding activity greater than 20%)”.
`C=CC(=O)N1CC(N2CCN(C(=O)[C@H](C)Nc3cc(CC)c(Cl)cc3O)CC2)C1` [II-69, (S)-1-(3-(4-(2-((4-Chloro-5-ethyl-2-hydroxyphenyl)amino)propanoyl)piperazin-1-yl)azetidin-1-yl)prop-2-en-1-one]: in assay [1] (determined at 2 hrs), the Binding % entry is on record as “++ (++indicates binding activity greater than 20%)”.
The same measure, in the same setting: as for `C=CC(=O)N1CC(N2CCN(C(=O)[C@@H](C)Nc3cc(CC)c(Cl)cc3O)CC2)C1` [II-70, (R)-1-(3-(4-(2-(4-chloro-5-ethyl-2-hydroxyphenylamino)-propanoyl)piperazin-1-yl)azetidin-1-yl)prop-2-en-1-one], the entry is “++ (++indicates binding activity greater than 20%)”; as for `C=CC(=O)N1CC(N2CCN(C(=O)CNc3cc(C4CC4)c(Cl)cc3C#N)CC2)C1` [II-71, 2-((2-(4-(1-Acryloylazetidin-3-yl)piperazin-1-yl)-2-oxoethyl)amino)-5-chloro-4-cyclopropylbenzonitrile], “+ (+indicates binding activity from 5% to 20%)”; as for `C=CC(=O)N1CC(N2CCN(c3cc(-c4cc(CC)c(Cl)cc4O)n[nH]3)CC2)C1` [II-72, 1-(3-(4-(3-(4-chloro-5-ethyl-2-hydroxyphenyl)-1H-pyrazol-5-yl)piperazin-1-yl)azetidin-1-yl)prop-2-en-1-one], “+ (+indicates binding activity from 5% to 20%)”.
On the same count and under the same terms, as for `C=CC(=O)N1CC(N2CCN(C(=O)C3CCCN3c3cc(C4CC4)c(Cl)cc3OC)CC2)C1` (stereo not drawn) [II-73, 1-(3-(4-(1-(4-chloro-5-cyclopropyl-2-methoxyphenyl)-pyrrolidine-2-carbonyl)piperazin-1-yl)azetidin-1-yl)prop-2-en-1-one], the entry is “+ (+indicates binding activity from 5% to 20%)”.
For the compound `C=CC(=O)N1CC(N2CCN(C(=O)CNc3cc(CC)c(Cl)cn3)CC2)C1` [II-74, 1-(3-(4-(2-(5-chloro-4-ethylpyridin-2-ylamino)acetyl)-piperazin-1-yl)azetidin-1-yl)prop-2-en-1-one], the Binding % entry in assay [1] (determined at 2 hrs) is “+ (+indicates binding activity from 5% to 20%)”. The “G1 arrest and induction of apoptosis” value with H358 cells (KRAS G12C) is recorded as “G1 arrest with low to modest induction of apoptosis”.
`C=CC(=O)N1CC(N2CCN(C(=O)Cn3ccc4c(Cl)c(Cl)cc(OC)c43)CC2)C1` [II-75, 1-(3-(4-(2-(4,5-dichloro-7-methoxy-1H-indol-1-yl)acetyl)piperazin-1-yl)azetidin-1-yl)prop-2-en-1-one]: the Binding % result in assay [1] (determined at 2 hrs) is reported as “+ (+indicates binding activity from 5% to 20%)”.
For the compound `C=CC(=O)N1CCN(C(=O)c2cc(-c3cc(Cl)ccc3Cl)c(Cl)cc2OC)C(CO)C1` (stereo not drawn) [III-7, 1-(3-(Hydroxymethyl)-4-(2′,5′,6-trichloro-4-methoxy-[1,1′-biphenyl]-3-carbonyl)piperazin-1-yl)prop-2-en-1-one], the Binding % entry in assay [1] (determined at 24 hrs) is “+++ (+++indicates binding activity greater than 20% and up to 30%)”.
Turning to `C=CC(=O)N1CCN(C(=O)c2cc(-c3ccc(Cl)cc3Cl)c[nH]2)CC1` [III-32, 1-(4-(4-(2,4-Dichlorophenyl)-1H-pyrrole-2-carbonyl)piperazin-1-yl)prop-2-en-1-one], in assay [1] (determined at 24 hrs), the Binding % entry is recorded as “++++ (++++indicates binding activity greater than 30%)”.
As to `C=CC(=O)N1CCN(C(=O)c2cc(-c3ccc(Cl)cc3)c(Cl)cc2O)CC1C#N` (stereo not drawn) [III-37, 1-acryloyl-4-(4′,6-dichloro-4-hydroxybiphenylcarbonyl)piperazine-2-carbonitrile], the Binding % entry in assay [1] (determined at 2 hrs) is “++ (++indicates binding activity greater than 20%)”.
Same read-out and setting: as for `C=CC(=O)N1CCN(C(=O)c2cc(Cl)c(-c3ccccc3)cc2O)CC1` [III-42, 1-(4-(2-Chloro-5-hydroxy-[1,1′-biphenyl]-4-carbonyl)piperazin-1-yl)prop-2-en-1-one], the entry is “+ (+indicates binding activity from 5% to 20%)”.
With `O=C(NOC[C@H](O)CO)c1ccc(F)c(F)c1Nc1ccc(I)cc1F` [PD0325901], the “G1 arrest and induction of apoptosis” value with H358 cells (KRAS G12C) is listed as “G1 arrest with low to modest induction of apoptosis”. The “apoptosis based on cleaved PARP levels” value with H358 cells (KRAS G12C) (setting [4]) is “does not induce robust apoptosis”.
As for `N#CCNC(=O)c1ccc(-c2ccnc(Nc3ccc(N4CCOCC4)cc3)n2)cc1` [momelotinib, reference compound], in assay [2], the “apoptosis based on cleaved PARP levels” value is “does not induce robust apoptosis”.
